Reference: patent US4698350A, “1-ethyl-6-fluoro-1,4-dihydro- 7-(2,6-dimethyl-4-pyridinyl)-4-oxo-3-quinolinecarboxylic acid and antibacterial use thereof” (Sterling Drug Inc., priority 1984, dated 1987)
≈ marks a conversion by molar mass, not a printed value. Counter-ions that a name gives are not always drawn. Like-named read-outs stand apart in the source and are kept apart here.

Columns and labels:
Gram-positive cocci = experiment: In vitro antibacterial activity; assay type: cell-based, S. aureus, S. epidermidis and Streptococcus species
Experimental: (§1) Win 52,522 and Win 35,439 were solubilized in 0.1 ml of 0.5 N NaOH/mg of compound and diluted in sterile distilled water to 160 mcg/ml. Vancomycin and methicillin were solubilized in sterile distilled water to 1250 mcg/ml of base compound. The stock solutions were sterilized by filtration through membrane filters with a 0.45 μm pore size.
(§2) The bacterial cultures listed in Table I (hereinbelow) were grown overnight at 37° C. in MHB for all cultures except the Streptococcus strains. These were grown in BHI+10% NHS. The overnight broth cultures were adjusted to an optical density of 0.10 (650 nm, B L Spectronic 20) in sterile distilled water and subsequently diluted to 6.7×10^6 cells/ml in MHB or BHI+1% NHS.
Serial two-fold dilutions of the compound solutions were prepared in MHB (or in BHI+1% NHS for tests with Streptococci) and dispensed into 96-well microtiter trays in a volume of 0.1 ml/well using a Sandy Springs (Bellco Glass Co.) dispenser. The trays were then inoculated with 0.0015 ml of a suspension containing 6.7×10^6 cells/ml of the appropriate inoculum using a MIC-2000 inoculator (Dynatech Corp.) resulting in a final inoculum of approximately 1×10^4 cells/well or 1×10^5 cells/ml. The trays were incubated at 37° C. for 18-20 hours and the minimal inhibitory concentration (MIC), defined as the lowest concentration of compound to inhibit visible bacterial growth, was recorded. […]

E. coli (8739) = experiment: In vitro antibacterial MIC/MBC test; assay type: cell-based; settings: Escherichia coli, ATCC8739; E. coli ATCC No. 8739
Procedure, shortened: (§3)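 In this microdilution assay, strains are exposed to two-fold compound dilutions in MHB (streptococci in BHI+1% NHS) at roughly 1×10^4 cells per well for 18-20 hours at 37° C. Visible growth defines the MIC. Subculture onto MHA or BHI agar+10% NHS defines the MBC.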

E. coli 198 = experiment: In vitro antibacterial MIC/MBC test; assay type: cell-based; settings: Escherichia coli
Procedure, shortened: as §3

E. coli 2350 = experiment: In vitro antibacterial MIC/MBC test; assay type: cell-based; settings: Escherichia coli
Procedure, shortened: as §3

E. coli AH719 = experiment: In vitro antibacterial MIC/MBC test; assay type: cell-based; settings: Escherichia coli
Procedure, shortened: as §3

E. coli Vogel = experiment: In vitro antibacterial MIC/MBC test; assay type: cell-based; settings: Escherichia coli
Procedure, shortened: as §3

P. aeruginosa (15442) = experiment: In vitro antibacterial MIC/MBC test; assay type: cell-based; settings: Pseudomonas aeruginosa, ATCC15442; P. aeruginosa ATCC No. 15442
Procedure, shortened: as §3

P. aeruginosa (27853) = experiment: In vitro antibacterial MIC/MBC test; assay type: cell-based; settings: Pseudomonas aeruginosa, ATCC27853; P. aeruginosa ATCC No. 27853
Procedure, shortened: as §3

P. aeruginosa (7700) = experiment: In vitro antibacterial MIC/MBC test; assay type: cell-based; settings: Pseudomonas aeruginosa, ATCC7700; P. aeruginosa ATCC No. 7700
Procedure, shortened: as §3

P. aeruginosa (9027) = experiment: In vitro antibacterial MIC/MBC test; assay type: cell-based; settings: Pseudomonas aeruginosa, ATCC9027; P. aeruginosa ATCC No. 9027
Procedure, shortened: as §3

P. aeruginosa MGH-2 = experiment: In vitro antibacterial MIC/MBC test; assay type: cell-based; settings: Pseudomonas aeruginosa, MGH2
Procedure, shortened: as §3

E. coli = experiment: In vitro MIC/MBC summary (Table II); assay type: cell-based; settings: Escherichia coli, 5 E. coli strains
Experimental: as §1, §2
(§4) Serial two-fold dilutions of the compound solutions were prepared in MHB (or in BHI+1% NHS for tests with Streptococci) and dispensed into 96-well microtiter trays in a volume of 0.1 ml/well using a Sandy Springs (Bellco Glass Co.) dispenser. The trays were then inoculated with 0.0015 ml of a suspension containing 6.7×10^6 cells/ml of the appropriate inoculum using a MIC-2000 inoculator (Dynatech Corp.) resulting in a final inoculum of approximately 1×10^4 cells/well or 1×10^5 cells/ml. The trays were incubated at 37° C. for 18-20 hours and the minimal inhibitory concentration (MIC), defined as the lowest concentration of compound to inhibit visible bacterial growth, was recorded.
(§5) After the MIC values were recorded, the contents in the microtiter trays were thoroughly mixed on a Bellco Mini-orbital Shaker (Bellco Glass Co.) for 3 min. at a setting of 8. A portion (0.0015 ml) from each well was then transferred via an MIC-2000 inoculator to plates containing MHA or BHI agar+10% NHS. The plates were incubated at 37° C. for 18-20 hrs. The minimal bactericidal concentration (MBC), defined as the lowest concentration of compound that prevented the formation of a recognizable colony on the agar surface, was recorded.

P. aeruginosa = experiment: In vitro MIC/MBC summary (Table II); assay type: cell-based, Pseudomonas aeruginosa
Experimental: as §1, §2, §4, §5

[1] = system: Staphylococcus aureus Smith; experiment: Mouse protection test, S. aureus Smith infection, single dose; assay type: in vivo, ICR mice; Staphylococcus aureus; settings: single dose; for ED50: Staphylococcus aureus, 168 h, read-out: Protective Dose 50% (95% Confidence Limits); for times more efficacious than Win 35,439: S. aureus
Experimental: (§6) ICR mice, female, 18-20 grams each.
(§7) Solutions of Win 52,522 and Win 35,439 were prepared by dissolving the appropriate weight of drug in 0.3 to 0.4 ml of 1 N NaOH and then bringing the solutions to the desired volume with distilled water. Methicillin and vancomycin were dissolved directly in distilled water.
(§8) Two and one-half ml of pool were added to 247.5 ml of 5% gastric mucin to provide the test inoculum containing 2.1×10^4 cells/ml.
(§9) Mice were inoculated intraperitoneally with 0.5 ml of the bacterial test inoculum.
1. Single dose test--Mice were medicated subcutaneously or orally once (0.5 ml) one-half hour postinfection.
(§10) Deaths were recorded daily for seven days for all tests. Fifty percent protective dose values (PD50's) were calculated using probit analysis [SAS Users Guide: Statistics, 1982 Edition, SAS Institute, Inc., Cary, N.C.].

[2] = system: Staphylococcus aureus Smith; experiment: Mouse protection test, S. aureus Smith infection, multiple dose; assay type: in vivo, ICR mice; Staphylococcus aureus; settings: for ED50: Staphylococcus aureus, 168 h, read-out: Protective Dose 50% (95% Confidence Limits)
Experimental: as §6, §7, §8, §9
2. Multiple dose test--Mice were medicated subcutaneously (0.2 ml) or orally (0.5 ml) at the following times: six hours and one hour preinfection (infection at 2 pm) and twice a day (8 a.m. and 3:30 p.m.) for the next two successive days.
as §10

[3] = Pseudomonas aeruginosa, 5 P. aeruginosa strains

For `COc1cccc(OC)c1C(=O)N[C@@H]1C(=O)N2[C@@H]1SC(C)(C)[C@@H]2C(=O)O` [Methicillin, 6-(2,6-dimethoxybenzamido)penicillanic acid sodium salt], the bactericidal / bacteriostatic (Gram-positive cocci; Gram-positive cocci) was “bactericidal”.

In the case of `CCn1cc(C(=O)O)c(=O)c2cc(F)c(-c3cc(C)nc(C)c3)cc21` [Win 52,522, 1-ethyl-6-fluoro-1,4-dihydro-7-(2,6-dimethyl-4-pyridinyl)-4-oxo-3-quinolinecarboxylic acid], the MBC (E. coli (8739)) is reported as 0.25 µg/mL (≈ 0.735 µM), the MIC (E. coli (8739)) is reported as 0.25 µg/mL (≈ 0.735 µM) and the MBC (E. coli 198) is reported as 0.5 µg/mL (≈ 1.47 µM). The MIC (E. coli 198) was 0.5 µg/mL (≈ 1.47 µM), the MBC (E. coli 2350) was 0.25 µg/mL (≈ 0.735 µM) and the MIC (E. coli 2350) was 0.25 µg/mL (≈ 0.735 µM). For the same compound, the MBC (E. coli AH719) was 0.25 µg/mL (≈ 0.735 µM), the MIC (E. coli AH719) was 0.25 µg/mL (≈ 0.735 µM) and the MBC (E. coli Vogel) was 0.5 µg/mL (≈ 1.47 µM). It also gave an MIC (E. coli Vogel) of 0.25 µg/mL (≈ 0.735 µM), an MBC (P. aeruginosa (15442)) of 16 µg/mL (≈ 47 µM) and an MIC (P. aeruginosa (15442)) of 16 µg/mL (≈ 47 µM). For the same compound, the MBC (P. aeruginosa (27853)) was 16 µg/mL (≈ 47 µM), the MIC (P. aeruginosa (27853)) was 16 µg/mL (≈ 47 µM) and the MBC (P. aeruginosa (7700)) was 16 µg/mL (≈ 47 µM). The MIC (P. aeruginosa (7700)) was 16 µg/mL (≈ 47 µM), the MBC (P. aeruginosa (9027)) was 16 µg/mL (≈ 47 µM) and the MIC (P. aeruginosa (9027)) was 4 µg/mL (≈ 11.8 µM). The MBC (P. aeruginosa MGH-2) was 16 µg/mL (≈ 47 µM), the MIC (P. aeruginosa MGH-2) was 16 µg/mL (≈ 47 µM) and the MIC (E. coli) was 0.25 to 0.5 µg/mL (≈ 0.735 to 1.47 µM). It also gave an MIC50 (E. coli) of 0.25 µg/mL (≈ 0.735 µM), an MIC90 (E. coli) of 0.25 µg/mL (≈ 0.735 µM) and an MBC (E. coli; read-out: MBC 50%) of 0.25 µg/mL (≈ 0.735 µM). It also gave an MBC (E. coli; read-out: MBC Range) of 0.25 to 0.5 µg/mL (≈ 0.735 to 1.47 µM), an MIC (P. aeruginosa; [3]) of 4 to 16 µg/mL (≈ 11.8 to 47 µM) and an MIC50 (P. aeruginosa; [3]) of 16 µg/mL (≈ 47 µM). The MIC90 (P. aeruginosa; [3]) was 16 µg/mL (≈ 47 µM), the MBC (P. aeruginosa; Pseudomonas aeruginosa, 5 P. aeruginosa strains, read-out: MBC 50%) was 16 µg/mL (≈ 47 µM) and the MBC (P. aeruginosa; Pseudomonas aeruginosa, 5 P. aeruginosa strains, read-out: MBC 90%) was 16 µg/mL (≈ 47 µM). For the same compound, the MBC (P. aeruginosa; Pseudomonas aeruginosa, 5 P. aeruginosa strains, read-out: MBC Range) was 16 µg/mL (≈ 47 µM), the “potency relative to Win 35,439” value (P. aeruginosa; in vitro, P. aeruginosa) was “similarly potent” and the “times more potent in vitro than Win 35,439” value (Gram-positive cocci; several Gram-positive cocci) was 2-8 times. For the same compound, the Survivors/Total ([1]; 0.095 mg/kg sc) was 0/10, the Survivors/Total ([1]; 0.19 mg/kg po) was 0/10 and the Survivors/Total ([1]; 0.19 mg/kg sc) was 0/10. The Survivors/Total ([1]; 0.39 mg/kg po) was 0/10, the Survivors/Total ([1]; 0.39 mg/kg sc) was 2/10 and the Survivors/Total ([1]; 0.78 mg/kg po) was 0/10. The Survivors/Total ([1]; 0.78 mg/kg sc) was 4/10, the Survivors/Total ([1]; 1.56 mg/kg po) was 7/10 and the Survivors/Total ([1]; 1.56 mg/kg sc) was 10/10. For the same compound, the Survivors/Total ([1]; 3.13 mg/kg po) was 10/10, the ED50 ([1]; po) was about 1.4 mg/kg and the ED50 ([1]; sc) was 0.8 mg/kg. The “times more efficacious than Win 35,439” value ([1]; po) was 3.9 times, the “times more efficacious than Win 35,439” value ([1]; sc) was 3.6 times and the Survivors/Total ([2]; 0.19 mg/kg po) was 0/10. The Survivors/Total ([2]; 0.19 mg/kg sc) was 0/10, the Survivors/Total ([2]; 0.39 mg/kg po) was 0/10 and the Survivors/Total ([2]; 0.39 mg/kg sc) was 0/10. For the same compound, the Survivors/Total ([2]; 0.78 mg/kg po) was 0/10, the Survivors/Total ([2]; 0.78 mg/kg sc) was 0/10 and the Survivors/Total ([2]; 1.56 mg/kg po) was 2/10. The Survivors/Total ([2]; 1.56 mg/kg sc) was 4/10, the Survivors/Total ([2]; 3.13 mg/kg po) was 9/10 and the Survivors/Total ([2]; 3.13 mg/kg sc) was 9/10. For the same compound, the Survivors/Total ([2]; 6.25 mg/kg po) was 10/10, the Survivors/Total ([2]; 6.25 mg/kg sc) was 10/10 and the Survivors/Total ([2]; 12.5 mg/kg po) was 10/10. For the same compound, the Survivors/Total ([2]; 12.5 mg/kg sc) was 10/10, the ED50 ([2]; po) was 2.1 mg/kg and the ED50 ([2]; sc) was 1.8 mg/kg. For the same compound, the “times more efficient than Win 35,439” value ([2]; po) was 3.4 times and the “times more efficient than Win 35,439” value ([2]; sc) was 3.9 times.
